From BindingDB's records for PubMed 20126400 (University of Oklahoma, 2010)

Columns and labels:
Assay in all cases: Ray2010 Assay 74
[1] = target: T1, 5-hydroxytryptamine receptor 3A (Homo sapiens, UniProt P46098)
T1 sequence (P46098 whole entry): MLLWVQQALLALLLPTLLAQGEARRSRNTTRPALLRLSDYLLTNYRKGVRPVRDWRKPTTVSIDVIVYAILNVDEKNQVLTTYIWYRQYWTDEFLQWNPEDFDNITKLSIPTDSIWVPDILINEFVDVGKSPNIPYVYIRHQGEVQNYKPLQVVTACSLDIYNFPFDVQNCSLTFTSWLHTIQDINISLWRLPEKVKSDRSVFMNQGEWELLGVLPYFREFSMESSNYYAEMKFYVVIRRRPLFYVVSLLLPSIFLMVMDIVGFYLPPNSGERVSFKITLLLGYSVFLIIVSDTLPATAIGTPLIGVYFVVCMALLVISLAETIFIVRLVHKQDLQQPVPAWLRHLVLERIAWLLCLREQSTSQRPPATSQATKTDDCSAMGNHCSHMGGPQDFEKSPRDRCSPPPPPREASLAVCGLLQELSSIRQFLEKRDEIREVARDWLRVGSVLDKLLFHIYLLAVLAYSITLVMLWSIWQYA
Source text: (§1) Table S2 shows raw Ki data for the current study combined with data collected from the literature for the ten additional compounds.

[2] = target: 5-hydroxytryptamine receptor 5A (Homo sapiens, UniProt P47898)
Chain of 5-hydroxytryptamine receptor 5A (P47898 whole entry): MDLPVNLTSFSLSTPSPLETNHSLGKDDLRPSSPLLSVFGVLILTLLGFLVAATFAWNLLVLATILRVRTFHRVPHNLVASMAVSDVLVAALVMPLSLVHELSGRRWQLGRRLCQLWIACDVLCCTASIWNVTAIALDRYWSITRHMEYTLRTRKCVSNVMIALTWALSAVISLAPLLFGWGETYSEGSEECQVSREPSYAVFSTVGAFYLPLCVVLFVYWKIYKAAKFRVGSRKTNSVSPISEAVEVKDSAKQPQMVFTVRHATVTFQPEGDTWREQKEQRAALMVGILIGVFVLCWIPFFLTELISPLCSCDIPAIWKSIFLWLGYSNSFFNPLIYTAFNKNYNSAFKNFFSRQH
Source text: as §1

Cannabinoid receptor 1 = Cannabinoid receptor 1 (Homo sapiens, UniProt P21554)
Chain of Cannabinoid receptor 1 (P21554 whole entry): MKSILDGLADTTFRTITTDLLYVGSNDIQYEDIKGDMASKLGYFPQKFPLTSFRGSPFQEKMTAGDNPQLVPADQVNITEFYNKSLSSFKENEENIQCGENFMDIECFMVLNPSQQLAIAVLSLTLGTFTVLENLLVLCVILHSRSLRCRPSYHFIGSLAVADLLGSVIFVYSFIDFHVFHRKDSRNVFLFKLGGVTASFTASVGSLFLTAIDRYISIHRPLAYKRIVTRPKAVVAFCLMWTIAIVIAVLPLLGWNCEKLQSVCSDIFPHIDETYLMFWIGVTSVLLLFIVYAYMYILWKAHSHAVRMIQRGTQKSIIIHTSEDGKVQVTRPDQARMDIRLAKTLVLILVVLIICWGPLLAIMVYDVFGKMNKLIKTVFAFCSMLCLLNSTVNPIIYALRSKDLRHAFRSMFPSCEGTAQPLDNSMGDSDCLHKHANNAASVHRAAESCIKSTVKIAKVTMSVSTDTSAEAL
Source text: as §1

Cannabinoid receptor 2 = Cannabinoid receptor 2 (Homo sapiens, UniProt P34972)
Chain of Cannabinoid receptor 2 (P34972 whole entry): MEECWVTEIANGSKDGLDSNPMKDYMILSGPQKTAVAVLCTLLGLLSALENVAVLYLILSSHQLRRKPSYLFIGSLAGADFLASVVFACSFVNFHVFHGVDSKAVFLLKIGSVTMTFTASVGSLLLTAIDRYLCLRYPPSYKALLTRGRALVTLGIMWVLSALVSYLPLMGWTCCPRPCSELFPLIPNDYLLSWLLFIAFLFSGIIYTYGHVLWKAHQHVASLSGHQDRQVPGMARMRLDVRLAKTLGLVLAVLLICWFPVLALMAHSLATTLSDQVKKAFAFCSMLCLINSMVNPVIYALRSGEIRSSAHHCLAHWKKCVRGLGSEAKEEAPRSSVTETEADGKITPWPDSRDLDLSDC
Source text: as §1

D(1B) dopamine receptor = D(1B) dopamine receptor (Homo sapiens, UniProt P21918)
Source text: as §1

[3] = target: T2, Gamma-aminobutyric acid receptor subunit alpha-1/Adenosine receptor A1 (Homo sapiens, UniProt P14867+P30542)
T2 sequence (P30542 whole entry): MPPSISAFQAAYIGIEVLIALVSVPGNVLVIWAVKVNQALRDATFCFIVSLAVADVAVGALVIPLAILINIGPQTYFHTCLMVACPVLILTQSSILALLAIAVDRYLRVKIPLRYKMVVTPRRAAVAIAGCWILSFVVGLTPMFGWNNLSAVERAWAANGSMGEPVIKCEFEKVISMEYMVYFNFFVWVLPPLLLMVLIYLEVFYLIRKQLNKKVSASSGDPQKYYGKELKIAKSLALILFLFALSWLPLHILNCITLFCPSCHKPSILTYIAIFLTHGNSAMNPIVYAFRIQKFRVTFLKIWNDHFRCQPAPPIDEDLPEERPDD
T2 sequence (P14867 whole entry): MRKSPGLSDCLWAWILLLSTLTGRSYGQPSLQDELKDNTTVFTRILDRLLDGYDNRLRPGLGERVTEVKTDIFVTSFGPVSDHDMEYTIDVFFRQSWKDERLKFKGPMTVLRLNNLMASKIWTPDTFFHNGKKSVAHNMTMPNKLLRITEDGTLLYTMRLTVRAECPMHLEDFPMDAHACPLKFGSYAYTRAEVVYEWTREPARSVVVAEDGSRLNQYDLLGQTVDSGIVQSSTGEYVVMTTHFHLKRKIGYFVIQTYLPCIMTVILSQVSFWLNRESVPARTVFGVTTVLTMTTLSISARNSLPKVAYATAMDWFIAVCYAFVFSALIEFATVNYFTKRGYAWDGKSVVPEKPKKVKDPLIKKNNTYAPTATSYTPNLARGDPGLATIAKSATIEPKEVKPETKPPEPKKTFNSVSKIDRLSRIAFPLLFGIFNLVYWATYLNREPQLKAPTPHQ
Source text: as §1

[4] = target: Kappa-type opioid receptor (Homo sapiens, UniProt P41145)
Chain of Kappa-type opioid receptor (P41145 whole entry): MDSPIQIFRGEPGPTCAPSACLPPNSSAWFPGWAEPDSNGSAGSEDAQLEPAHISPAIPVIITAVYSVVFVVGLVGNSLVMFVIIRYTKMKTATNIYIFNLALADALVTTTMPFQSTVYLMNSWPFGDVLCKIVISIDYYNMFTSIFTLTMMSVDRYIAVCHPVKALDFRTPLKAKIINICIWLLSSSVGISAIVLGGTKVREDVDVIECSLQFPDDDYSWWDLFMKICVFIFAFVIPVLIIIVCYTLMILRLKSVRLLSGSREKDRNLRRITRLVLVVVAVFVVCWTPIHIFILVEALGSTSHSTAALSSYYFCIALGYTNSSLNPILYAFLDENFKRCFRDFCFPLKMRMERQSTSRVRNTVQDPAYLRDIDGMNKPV
Source text: as §1

[5] = target: T3, Muscarinic acetylcholine receptor M4 (Homo sapiens, UniProt P08173)
T3 sequence (P08173 whole entry): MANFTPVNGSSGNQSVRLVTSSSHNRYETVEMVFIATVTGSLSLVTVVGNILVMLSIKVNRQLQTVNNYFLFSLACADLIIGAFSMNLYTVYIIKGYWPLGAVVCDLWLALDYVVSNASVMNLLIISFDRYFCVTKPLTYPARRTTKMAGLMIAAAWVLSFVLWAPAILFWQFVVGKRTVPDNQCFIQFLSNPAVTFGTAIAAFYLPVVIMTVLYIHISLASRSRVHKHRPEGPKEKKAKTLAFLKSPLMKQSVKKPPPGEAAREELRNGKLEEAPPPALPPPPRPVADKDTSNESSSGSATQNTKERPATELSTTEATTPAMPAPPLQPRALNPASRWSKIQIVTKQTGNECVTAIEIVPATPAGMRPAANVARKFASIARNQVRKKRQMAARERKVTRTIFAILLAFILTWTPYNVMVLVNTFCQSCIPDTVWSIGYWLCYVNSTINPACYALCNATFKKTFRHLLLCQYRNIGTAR
Source text: as §1

[6] = target: T4, Muscarinic acetylcholine receptor M5 (Homo sapiens, UniProt P08912)
T4 sequence (P08912 whole entry): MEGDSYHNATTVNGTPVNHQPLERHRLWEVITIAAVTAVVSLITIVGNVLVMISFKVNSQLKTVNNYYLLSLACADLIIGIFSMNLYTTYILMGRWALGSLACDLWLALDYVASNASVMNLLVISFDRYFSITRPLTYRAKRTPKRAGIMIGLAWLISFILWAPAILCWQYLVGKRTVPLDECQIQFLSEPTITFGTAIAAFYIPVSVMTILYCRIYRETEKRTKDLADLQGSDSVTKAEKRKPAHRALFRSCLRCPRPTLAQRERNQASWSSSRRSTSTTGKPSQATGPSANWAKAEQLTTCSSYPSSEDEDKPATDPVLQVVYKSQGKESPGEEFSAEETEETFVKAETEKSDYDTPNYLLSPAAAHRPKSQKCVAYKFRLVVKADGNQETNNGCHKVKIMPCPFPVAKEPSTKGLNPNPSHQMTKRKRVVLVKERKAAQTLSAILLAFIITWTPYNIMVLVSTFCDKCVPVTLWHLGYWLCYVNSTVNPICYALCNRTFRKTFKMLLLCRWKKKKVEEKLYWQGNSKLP
Source text: as §1

Nischarin = Nischarin (Homo sapiens, UniProt Q9Y2I1)
Source text: as §1

[7] = target: Voltage-dependent calcium channel subunit alpha-2/delta-1 (Homo sapiens, UniProt P54289)
Source text: as §1

[8] = target: T5, 5-hydroxytryptamine receptor 1A (Homo sapiens, UniProt P08908)
T5 sequence (P08908 whole entry): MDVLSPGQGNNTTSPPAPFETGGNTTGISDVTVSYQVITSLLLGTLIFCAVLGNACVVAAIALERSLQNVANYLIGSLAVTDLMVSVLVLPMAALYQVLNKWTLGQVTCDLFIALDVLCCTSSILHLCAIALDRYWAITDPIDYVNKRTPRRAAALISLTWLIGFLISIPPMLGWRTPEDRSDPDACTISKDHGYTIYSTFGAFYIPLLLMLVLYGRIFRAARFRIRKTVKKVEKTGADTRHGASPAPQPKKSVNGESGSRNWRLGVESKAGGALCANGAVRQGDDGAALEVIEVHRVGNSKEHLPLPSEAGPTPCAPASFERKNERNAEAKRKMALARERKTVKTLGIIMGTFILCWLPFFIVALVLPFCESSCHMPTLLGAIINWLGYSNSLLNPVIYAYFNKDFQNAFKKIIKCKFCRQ
Source text: as §1

[9] = target: 5-hydroxytryptamine receptor 1B (Homo sapiens, UniProt P28222)
Source text: as §1

[10] = target: 5-hydroxytryptamine receptor 1E (Homo sapiens, UniProt P28566)
Chain of 5-hydroxytryptamine receptor 1E (P28566 whole entry): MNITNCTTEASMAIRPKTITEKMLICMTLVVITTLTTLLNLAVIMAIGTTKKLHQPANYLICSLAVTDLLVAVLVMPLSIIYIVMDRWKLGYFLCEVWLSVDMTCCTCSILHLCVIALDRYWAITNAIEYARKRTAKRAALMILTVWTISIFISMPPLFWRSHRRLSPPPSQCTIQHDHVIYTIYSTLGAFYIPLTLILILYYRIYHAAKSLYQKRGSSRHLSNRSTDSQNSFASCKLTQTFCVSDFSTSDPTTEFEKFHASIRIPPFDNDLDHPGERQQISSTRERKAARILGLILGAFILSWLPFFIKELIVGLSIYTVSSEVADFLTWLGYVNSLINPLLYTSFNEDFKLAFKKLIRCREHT
Source text: as §1

[11] = target: 5-hydroxytryptamine receptor 2A (Homo sapiens, UniProt P28223)
Chain of 5-hydroxytryptamine receptor 2A (P28223 whole entry): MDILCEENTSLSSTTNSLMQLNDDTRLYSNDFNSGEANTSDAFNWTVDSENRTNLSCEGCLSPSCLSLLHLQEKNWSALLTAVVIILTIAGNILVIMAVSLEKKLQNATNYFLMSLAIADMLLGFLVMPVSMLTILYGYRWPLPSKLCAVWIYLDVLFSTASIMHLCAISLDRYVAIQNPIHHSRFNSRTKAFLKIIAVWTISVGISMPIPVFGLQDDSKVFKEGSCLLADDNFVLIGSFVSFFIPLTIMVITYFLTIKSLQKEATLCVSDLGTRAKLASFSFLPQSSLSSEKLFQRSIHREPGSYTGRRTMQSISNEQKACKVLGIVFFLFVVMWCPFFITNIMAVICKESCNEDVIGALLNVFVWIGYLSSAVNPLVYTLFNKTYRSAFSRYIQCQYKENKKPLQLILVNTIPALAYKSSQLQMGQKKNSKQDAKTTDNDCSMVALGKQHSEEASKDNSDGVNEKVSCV
Source text: as §1

[12] = target: 5-hydroxytryptamine receptor 2B (Homo sapiens, UniProt P41595)
Chain of 5-hydroxytryptamine receptor 2B (P41595 whole entry): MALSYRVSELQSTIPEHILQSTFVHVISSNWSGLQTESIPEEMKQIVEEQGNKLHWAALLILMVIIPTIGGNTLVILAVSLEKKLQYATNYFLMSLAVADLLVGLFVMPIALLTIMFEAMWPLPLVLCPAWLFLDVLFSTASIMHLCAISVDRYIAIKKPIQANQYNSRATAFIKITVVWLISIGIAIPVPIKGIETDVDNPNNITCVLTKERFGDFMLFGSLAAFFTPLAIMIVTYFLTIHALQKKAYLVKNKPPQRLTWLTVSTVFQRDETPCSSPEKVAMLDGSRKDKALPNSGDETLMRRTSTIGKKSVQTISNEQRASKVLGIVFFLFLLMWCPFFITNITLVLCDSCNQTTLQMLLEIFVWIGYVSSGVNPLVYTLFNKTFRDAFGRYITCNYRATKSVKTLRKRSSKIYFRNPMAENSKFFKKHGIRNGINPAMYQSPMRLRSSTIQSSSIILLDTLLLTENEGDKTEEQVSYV
Source text: as §1

[13] = target: 5-hydroxytryptamine receptor 6 (Homo sapiens, UniProt P50406)
Chain of 5-hydroxytryptamine receptor 6 (P50406 whole entry): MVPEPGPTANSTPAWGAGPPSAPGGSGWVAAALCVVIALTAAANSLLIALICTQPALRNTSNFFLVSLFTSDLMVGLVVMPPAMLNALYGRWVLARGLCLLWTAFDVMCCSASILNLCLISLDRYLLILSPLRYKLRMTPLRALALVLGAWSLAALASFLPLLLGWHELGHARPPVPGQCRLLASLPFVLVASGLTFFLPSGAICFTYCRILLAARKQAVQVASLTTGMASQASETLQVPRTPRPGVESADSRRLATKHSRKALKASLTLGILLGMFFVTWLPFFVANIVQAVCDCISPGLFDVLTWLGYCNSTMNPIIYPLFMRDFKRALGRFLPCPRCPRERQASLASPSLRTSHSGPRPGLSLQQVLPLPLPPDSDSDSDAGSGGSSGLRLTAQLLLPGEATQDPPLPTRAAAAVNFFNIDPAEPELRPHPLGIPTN
Source text: as §1

[14] = target: T6, Alpha-1A adrenergic receptor (Homo sapiens, UniProt P35348)
T6 sequence (P35348 whole entry): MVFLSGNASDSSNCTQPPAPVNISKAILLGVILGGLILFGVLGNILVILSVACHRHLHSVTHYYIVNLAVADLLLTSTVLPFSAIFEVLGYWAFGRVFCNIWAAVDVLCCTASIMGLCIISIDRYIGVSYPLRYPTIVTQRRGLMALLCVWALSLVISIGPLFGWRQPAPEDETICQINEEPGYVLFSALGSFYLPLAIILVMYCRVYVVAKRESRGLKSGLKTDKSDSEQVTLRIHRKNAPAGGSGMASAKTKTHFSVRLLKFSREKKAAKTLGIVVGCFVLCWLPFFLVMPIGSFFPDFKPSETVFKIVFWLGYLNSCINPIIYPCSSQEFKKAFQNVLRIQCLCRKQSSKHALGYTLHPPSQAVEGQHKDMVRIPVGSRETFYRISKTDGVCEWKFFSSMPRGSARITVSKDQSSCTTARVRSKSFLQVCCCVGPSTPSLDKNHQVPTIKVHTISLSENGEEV
Source text: as §1

D(1A) dopamine receptor = D(1A) dopamine receptor (Homo sapiens, UniProt P21728)
Chain of D(1A) dopamine receptor (P21728 whole entry): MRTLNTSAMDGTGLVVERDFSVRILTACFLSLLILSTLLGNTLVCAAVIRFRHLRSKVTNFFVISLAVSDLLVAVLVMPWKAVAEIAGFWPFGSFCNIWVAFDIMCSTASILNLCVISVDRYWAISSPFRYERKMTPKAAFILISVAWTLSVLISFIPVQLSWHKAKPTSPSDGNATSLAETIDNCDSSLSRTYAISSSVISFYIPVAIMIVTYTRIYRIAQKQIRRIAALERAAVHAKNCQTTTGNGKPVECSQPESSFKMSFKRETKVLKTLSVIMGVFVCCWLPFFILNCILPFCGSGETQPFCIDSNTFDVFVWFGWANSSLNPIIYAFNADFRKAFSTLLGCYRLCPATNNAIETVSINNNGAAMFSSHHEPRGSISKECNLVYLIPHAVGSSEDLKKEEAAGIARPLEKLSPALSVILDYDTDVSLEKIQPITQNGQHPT
Source text: as §1

D(2) dopamine receptor = D(2) dopamine receptor (Homo sapiens, UniProt P14416)
Chain of D(2) dopamine receptor (P14416 whole entry): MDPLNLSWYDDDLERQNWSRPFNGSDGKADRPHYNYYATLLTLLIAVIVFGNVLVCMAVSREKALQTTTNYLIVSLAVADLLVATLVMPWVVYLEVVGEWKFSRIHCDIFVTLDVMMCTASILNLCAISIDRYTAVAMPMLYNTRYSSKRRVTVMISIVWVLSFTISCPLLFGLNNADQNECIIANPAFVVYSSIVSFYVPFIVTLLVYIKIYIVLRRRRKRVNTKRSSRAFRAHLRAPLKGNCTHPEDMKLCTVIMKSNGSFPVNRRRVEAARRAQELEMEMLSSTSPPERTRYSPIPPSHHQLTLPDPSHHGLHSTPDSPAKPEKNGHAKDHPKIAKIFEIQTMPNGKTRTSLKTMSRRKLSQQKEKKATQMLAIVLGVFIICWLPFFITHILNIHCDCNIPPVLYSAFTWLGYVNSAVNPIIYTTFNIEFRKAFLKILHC
Source text: as §1

Histamine H1 receptor = Histamine H1 receptor (Homo sapiens, UniProt P35367)
Chain of Histamine H1 receptor (P35367 whole entry): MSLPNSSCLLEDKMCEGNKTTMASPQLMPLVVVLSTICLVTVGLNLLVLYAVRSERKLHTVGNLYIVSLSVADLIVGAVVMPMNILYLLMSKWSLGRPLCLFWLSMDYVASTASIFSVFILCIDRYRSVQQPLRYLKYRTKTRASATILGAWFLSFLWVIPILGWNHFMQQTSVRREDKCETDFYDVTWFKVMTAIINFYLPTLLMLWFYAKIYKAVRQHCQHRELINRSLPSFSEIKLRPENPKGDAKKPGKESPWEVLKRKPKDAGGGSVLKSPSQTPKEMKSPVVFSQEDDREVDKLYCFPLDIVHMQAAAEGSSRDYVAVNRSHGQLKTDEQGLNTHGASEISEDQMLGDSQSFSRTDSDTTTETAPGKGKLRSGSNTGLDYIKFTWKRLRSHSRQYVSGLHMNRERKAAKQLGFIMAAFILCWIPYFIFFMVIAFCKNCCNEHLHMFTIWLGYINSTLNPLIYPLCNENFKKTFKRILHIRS
Source text: as §1

CCN(CC)C(=O)N[C@H]1C=C2c3cccc4[nH]cc(c34)C[C@H]2N(C)C1 [lisuride, (S)]
Ki [1]: > 10000 nM | Ki [2]: 3.1 nM | Ki (Cannabinoid receptor 1): > 10000 nM | Ki (Cannabinoid receptor 2): > 10000 nM | Ki (D(1B) dopamine receptor): 77 nM | Ki [3]: > 10000 nM | Ki [4]: > 10000 nM | Ki [5]: > 10000 nM | Ki [6]: > 10000 nM | Ki (Nischarin): > 10000 nM | Ki [7]: > 10000 nM

C[C@@H]1C[C@@H](C)N1C(=O)C1C=C2c3cccc4[nH]cc(c34)C[C@H]2N(C)C1 (some centres not stated) [ss-2c]
Ki [8]: 0.4 nM | Ki [9]: 2.4 nM | Ki [10]: 276 nM | Ki [11]: 19.2 nM | Ki [12]: 27 nM | Ki [2]: 27.3 nM | Ki [13]: 14.5 nM | Ki [14]: 850 nM | Ki (D(1A) dopamine receptor): 292 nM | Ki (D(2) dopamine receptor): 73.6 nM | Ki (Histamine H1 receptor): 2500 nM
